Measurements reported in paper PMC11995724, “Antibiotic target discovery by integrated phenotypic and activity-based profiling of electrophilic fragments” (Cell chemical biology, 2025).

Assay: in vitro
Details: human, hek293t cells

Row | Compound | viability at 48 h, 25 µM [%]
1 | C=CC(=O)Nc1ccc(C(=O)N2CCC(C(C)C)CC2)cc1 [3-B15, N-{4-[4-(propan-2-yl)piperidine-1-carbonyl]phenyl}prop-2-enamide] | 27.5
2 | O=C1C=CC(=O)N1c1cnccn1 [10-P07, 1-(pyrazin-2-yl)-2,5-dihydro-1H-pyrrole-2,5-dione] | 103
3 | N#CCSc1ccccc1NC(=O)CCl [6-C11, 2-chloro-N-{2-[(cyanomethyl)sulfanyl]phenyl}acetamide] | 2.08
4 | CC(Cl)C(=O)Nc1sc2c(c1C(N)=O)CCC2 (centres unmarked) [6-A21, 2-(2-chloropropanamido)-4H,5H,6H-cyclopenta[b]thiophene-3-carboxamide] | 119
5 | Cc1cc(Cl)ccc1CN1CCN(C(=O)C(C)Cl)CC1 (centres unmarked) [5-B13, 2-chloro-1-{4-[(4-chloro-2-methylphenyl)methyl]piperazin-1-yl}propan-1-one] | 94.8
6 | Cc1nn(C)c(NC(=O)C(C)Cl)c1-c1ccccc1 (centres unmarked) [7-F21, 2-chloro-N-(1,3-dimethyl-4-phenyl-1H-pyrazol-5-yl)propanamide] | 84.5
7 | C=CC(=O)NC1COC(C)C1 (centres unmarked) [1-H17, N-(5-methyloxolan-3-yl)prop-2-enamide] | 106
8 | C=CC(=O)N1CCC(C(=O)NCCO)CC1 [3-C18, N-(2-hydroxyethyl)-1-(prop-2-enoyl)piperidine-4-carboxamide] | 72.9
9 | C=CC(=O)NC1CC2CCC(C1)N2S(C)(=O)=O (centres unmarked) [2-A18, N-{8-methanesulfonyl-8-azabicyclo[3.2.1]octan-3-yl}prop-2-enamide] | 93.8
10 | C=CC(=O)NCCc1cscn1 [2-G08, N-[2-(1,3-thiazol-4-yl)ethyl]prop-2-enamide] | 87.1
11 | C=CC(=O)NCCC(=O)N1CCOC(c2nc(C)cs2)C1 (centres unmarked) [3-K04, N-{3-[2-(4-methyl-1,3-thiazol-2-yl)morpholin-4-yl]-3-oxopropyl}prop-2-enamide] | 89.7
12 | CN(CC(=O)Nc1c(Cl)cccc1Cl)C(=O)CCl [6-M05, 2-chloro-N-{[(2,6-dichlorophenyl)carbamoyl]methyl}-N-methylacetamide] | 2.21
13 | Cc1ccc(C=C(C#N)C(=O)Nc2cccc3ncccc23)cc1 [9-J05, 2-cyano-3-(4-methylphenyl)-N-(quinolin-5-yl)prop-2-enamide] | 123
14 | C=CC(=O)N(C)Cc1cccc(Cl)c1 [2-G09, N-[(3-chlorophenyl)methyl]-N-methylprop-2-enamide] | 60.6
15 | CCCN(Cc1ccc(C)cc1)C(=O)CCl [5-J09, 2-chloro-N-[(4-methylphenyl)methyl]-N-propylacetamide] | 0.952
16 | CC1CCN(C(=O)CCl)c2cc(C(F)(F)F)ccc2S1 (centres unmarked) [5-J07, 2-chloro-1-[2-methyl-7-(trifluoromethyl)-2,3,4,5-tetrahydro-1,5-benzothiazepin-5-yl]ethan-1-one] | 0.306
17 | N#CC(=Cc1cccc2ccccc12)C(=O)NC1CC1 [9-O03, 2-cyano-N-cyclopropyl-3-(naphthalen-1-yl)prop-2-enamide] | 116
18 | Cc1ccc(S(=O)(=O)N2CCCCC2)cc1NC(=O)CCl [4-L06, 2-chloro-N-[2-methyl-5-(piperidine-1-sulfonyl)phenyl]acetamide] | 0.53
19 | C=CC(=O)N1CCCC1c1cn(C)nc1C (centres unmarked) [3-M09, 1-[2-(1,3-dimethyl-1H-pyrazol-4-yl)pyrrolidin-1-yl]prop-2-en-1-one] | 50.9
20 | O=C(CCl)Nc1cc(Cl)c(Cl)cc1Cl [4-B06, 2-chloro-N-(2,4,5-trichlorophenyl)acetamide] | 0.135
21 | C=CC(=O)N(c1cc(C)ccc1C#N)C(C)C [2-A22, N-(2-cyano-5-methylphenyl)-N-(propan-2-yl)prop-2-enamide] | 111
22 | C=CC(=O)N1CCC(C(=O)N[C@H]2CCO[C@H](c3ccccn3)C2)CC1 (racemic) [2-G15, rac-1-(prop-2-enoyl)-N-[(2R,4R)-2-(pyridin-2-yl)oxan-4-yl]piperidine-4-carboxamide] | 66.9
23 | C=CC(=O)NCc1ncc(C)o1 [2-P21, N-[(5-methyl-1,3-oxazol-2-yl)methyl]prop-2-enamide] | 48.8
24 | CC(Cl)C(=O)C=C1N(C)c2ccccc2C1(C)C (centres unmarked) [10-J22, 3-chloro-1-(1,3,3-trimethyl-2,3-dihydro-1H-indol-2-ylidene)butan-2-one] | 5.56
25 | Cc1nc(C)c(C(=O)CCl)o1 [10-N08, 2-chloro-1-(2,4-dimethyl-1,3-oxazol-5-yl)ethan-1-one] | 76.1
26 | CCc1ccccc1NC(=O)CNC(=O)CCl [4-I08, 2-chloro-N-{[(2-ethylphenyl)carbamoyl]methyl}acetamide] | 0.8
27 | Cc1cccc(N2C(=O)C=CC2=O)c1C [10-H05, 1-(2,3-dimethylphenyl)-2,5-dihydro-1H-pyrrole-2,5-dione] | 94.3

Row | Compound | viability at 48 h, 25 µM [%]
28 | CCC(c1cc(Cl)cc(Cl)c1)N(C)C(=O)CCl (centres unmarked) [7-L10, 2-chloro-N-[1-(3,5-dichlorophenyl)propyl]-N-methylacetamide] | 0.495
29 | CCCCNC(=O)C(C#N)=Cc1cccc2ccccc12 [8-N13, N-butyl-2-cyano-3-(naphthalen-1-yl)prop-2-enamide] | 112
30 | CC1CCCN(C(=O)C(NC(=O)CCl)c2cnn(C)c2)C1 (centres unmarked) [6-H05, 2-chloro-N-[1-(1-methyl-1H-pyrazol-4-yl)-2-(3-methylpiperidin-1-yl)-2-oxoethyl]acetamide] | 104
31 | O=C(CCl)NCCS(=O)(=O)N1CCc2ccccc21 [6-H04, 2-chloro-N-[2-(2,3-dihydro-1H-indole-1-sulfonyl)ethyl]acetamide] | 14.1
32 | C=CC(=O)N1CCC(C(=O)NCCn2c(=O)[nH]c3ccccc32)CC1 [3-J03, N-[2-(2-oxo-2,3-dihydro-1H-1,3-benzodiazol-1-yl)ethyl]-1-(prop-2-enoyl)piperidine-4-carboxamide] | 72.2
33 | CC1=CSC(=C(C#N)C(=O)NCc2ccco2)N1c1ccccc1 [8-D13, 2-cyano-N-[(furan-2-yl)methyl]-2-(4-methyl-3-phenyl-2,3-dihydro-1,3-thiazol-2-ylidene)acetamide] | 114
34 | C=CC(=O)NCc1csc(C(C)(C)C)n1 [2-C09, N-[(2-tert-butyl-1,3-thiazol-4-yl)methyl]prop-2-enamide] | 86.1
35 | CC(Cl)C(=O)NC(C)c1nnnn1C1CC1 (centres unmarked) [7-N21, 2-chloro-N-[1-(1-cyclopropyl-1H-1,2,3,4-tetrazol-5-yl)ethyl]propanamide] | 75.9
36 | CC(Cl)C(=O)NC(C)c1ccns1 (centres unmarked) [6-P12, 2-chloro-N-[1-(1,2-thiazol-5-yl)ethyl]propanamide] | 115
37 | CC(Cl)C(=O)N1CC(OCc2cccc3ccccc23)C1 (centres unmarked) [7-I03, 2-chloro-1-{3-[(naphthalen-1-yl)methoxy]azetidin-1-yl}propan-1-one] | 96.3
38 | N#CC(=Cc1ccc(Cl)cc1)C(=O)Nc1cccc2c1C(=O)NC2=O [9-D09, 3-(4-chlorophenyl)-2-cyano-N-(1,3-dioxo-2,3-dihydro-1H-isoindol-4-yl)prop-2-enamide] | 105
39 | COc1ccc(Cl)cc1C(O)CNC(=O)CCl (centres unmarked) [7-N06, 2-chloro-N-[2-(5-chloro-2-methoxyphenyl)-2-hydroxyethyl]acetamide] | 0.942
40 | Cc1c(NC(=O)CCl)cccc1[N+](=O)[O-] [4-E07, 2-chloro-N-(2-methyl-3-nitrophenyl)acetamide] | 1.23
41 | CC(Cl)C(=O)Nc1ccccc1-c1ccccc1 (centres unmarked) [4-G14, N-{[1,1'-biphenyl]-2-yl}-2-chloropropanamide] | 69.4
42 | N#CC(=Cc1ccc(N2CCOCC2)cc1)C(=O)Nc1nccs1 [9-F17, 2-cyano-3-[4-(morpholin-4-yl)phenyl]-N-(1,3-thiazol-2-yl)prop-2-enamide] | 95.6
43 | Cc1n[nH]c(C)c1C=C(C#N)C(=O)Nc1cc(Cl)cc(Cl)c1 [8-M08, 2-cyano-N-(3,5-dichlorophenyl)-3-(3,5-dimethyl-1H-pyrazol-4-yl)prop-2-enamide] | 58.6
44 | CC(Cl)C(=O)c1ccc(NS(C)(=O)=O)cc1 (centres unmarked) [10-A08, N-[4-(2-chloropropanoyl)phenyl]methanesulfonamide] | 93.7
45 | CC(C)Cn1c(N)c(C(=O)CCl)c(=O)[nH]c1=O [10-F08, 6-amino-5-(2-chloroacetyl)-1-(2-methylpropyl)-1,2,3,4-tetrahydropyrimidine-2,4-dione] | 91.2
46 | C=CC(=O)N1CCC(c2cnn(C)c2)CC1 [2-I10, 1-[4-(1-methyl-1H-pyrazol-4-yl)piperidin-1-yl]prop-2-en-1-one] | 83.2
47 | CC(Cl)C(=O)N(Cc1cnn(C)c1)c1ccc(F)cc1 (centres unmarked) [6-P11, 2-chloro-N-(4-fluorophenyl)-N-[(1-methyl-1H-pyrazol-4-yl)methyl]propanamide] | 114
48 | C=CC(=O)N(C)Cc1ccnn1CC [1-F07, N-[(1-ethyl-1H-pyrazol-5-yl)methyl]-N-methylprop-2-enamide] | 100
49 | C=CC(=O)Nc1ccc(Cl)cc1F [1-I10, N-(4-chloro-2-fluorophenyl)prop-2-enamide] | 47.1
50 | C=CC(=O)N1CCC(C(=O)N[C@@H]2C[C@H]2c2ccc(Cl)c(F)c2)CC1 [3-B14, N-[(1R,2S)-2-(4-chloro-3-fluorophenyl)cyclopropyl]-1-(prop-2-enoyl)piperidine-4-carboxamide] | 78.3
51 | CC(C)CN(C(=O)CCl)c1cnn(-c2ccccn2)c1 [5-A12, 2-chloro-N-(2-methylpropyl)-N-[1-(pyridin-2-yl)-1H-pyrazol-4-yl]acetamide] | 0.323
52 | C=CC(=O)N1CCC(C(=O)NCC(C)(C)C=C)CC1 [2-G04, N-(2,2-dimethylbut-3-en-1-yl)-1-(prop-2-enoyl)piperidine-4-carboxamide] | 84.5
53 | C=CC(=O)NCCC(=O)N1CCC(O)(c2c(F)cccc2F)CC1 [2-B11, N-{3-[4-(2,6-difluorophenyl)-4-hydroxypiperidin-1-yl]-3-oxopropyl}prop-2-enamide] | 60
